As usually defined, the Ki is the dissociation constant of the complex between target and ligand, obtained from inhibition or displacement. Read a high Ki as a looser hold on the target.

In the test the target is Chymotrypsinogen A (Bos taurus) (UniProt P00766). The experiment in a line: Inhibitory activity against alpha chymotrypsin from bovine pancreas.

The molecule `Nc1cnc(-c2ccc(F)cc2)n(CC(=O)NC(Cc2ccccc2)C(=O)c2nc3cc(-c4ccccc4)ccc3o2)c1=O` (stereo unspecified) [2-[5-Amino-2-(4-fluoro-phenyl)-6-oxo-6H-pyrimidin-1-yl]-N-[1-benzyl-2-oxo-2-(5-phenyl-benzooxazol-2-yl)-ethyl]-acetamide] displayed a Ki of 1630 nM. In other words, the single-digit micromolar range.

The record behind these values is BindingDB's records for doi:10.1021/jm000496v (Welfide, 2001).
